The test system of series [1] is left ventricle of the heart. The experiment in a line: Intracardiac hemodynamics (intracavitary pressure). The class given is in vivo, rabbits. The settings on record: versus the composition.
Series [2] has as its system zone of necrosis, perinecrotic zone and myocardium regions spaced from the place of infarction. The experiment in a line: Experimental myocardial infarction in rabbits: histological, histochemical and electron-microscopic study. In kind it is in vivo, rabbits of the Chinchilla variety. The settings on record: for effect on reparative processes in the zone of necrosis / organization of the post-infarction scar: comparison of preparations; for activity of lysis-ensuring enzymes: zone of necrosis and perinecrotic areas. From the text:
The experiment on animals has been performed on 419 rabbits of the Chinchilla variety with experimentally-induced myocardial infarction produced by ligation of the front descending branch of the coronary artery.
The effect of the composition according to the present invention on the progress of the experimental myocardial infarction has been studied in comparison with the effect produced by inosine, potassium orotate, vitamin B12 with folic acid and retabolyl.
Histological, histochemical and electron-microscopic methods of investigation have been employed to study the zone of necrosis, perinecrotic zone and myocardium regions spaced from the place of infarction by 1, 3 and 7 days after operation. Furthermore, to determine the contractile ability of myocardium, measurements of intracavitary pressure have been performed. Dynamic electrocardiographic observation over the animals was carried out 7 times during the first day (prior to operation, 15, 30 minutes, 1, 2, 3 and 4 hours after the administration) and during the following days two times a day (before and one hour after the administration).
The study of the total cross-sectional patterns of a rabbit's heart has made it possible to precisely define these zones.
The first group of rabbits has been intramuscularly injected with the composition according to the present invention in the dose of 1 mg/kg in a day.
The second group of rabbits has been injected with inosine in a dose of 30 mg/kg intravenously daily once a day; for the first time 16 hours after the operation and for the last time 2 hours before slaughter (i.e. before the 7th day). The third group of rabbits has been given potassium orotate in a dose of 30 mg/kg in the same sequence as the previous preparation, i.e. up to the 7th day.
The fourth group of animals has been administered vitamin B12 3γ/kg in combination with folic acid in the same sequence.
The fifth group of rabbits has been administered an anabilic hormone of a prolonged action--retabolyl in a dose of 5 mg/kg of the bodyweight 1-2 times intramuscularly up to the 7th day.

Series [3] has as its system insufficiency of blood circulation and post-infarctional aneurysm. The experiment in a line: Clinical outcome: insufficiency of blood circulation and post-infarction aneurysm. In kind it is in vivo, patients. To be noted: comparison of the composition and inosine.
Experimental: (§1) The composition according to the present invention is administered to the patients intramuscularly in a dose of from 25 to 50 mg once every three days.
A further dynamic electrocardiographic observation is effected during the first day of injection of the composition (prior to injection and 1 and 2 hours thereafter), then once per 3 and later on--per 5 days. On the 1th, 10th, 20th and 40th days of the disease the central hemodynamics was determined by the method of radiocardiography. On the 10th and 40th days of the illness the contractile capacity of myocardium is assessed by methods of electro- and X-ray kymography. The biochemical control over the effect of the preparation was effected by determination, in dynamics in blood serum, of the products of decomposition of DNA, proline, hydroxyproline, transaminases. There was also analyzed the dynamics of normalization of leukocytosis, ESR (erythrocyte sedimentation rate), disappearance of aneosinophilia. The careful clinical assessment of the effect of the composition was also performed.
The subject of the next series is central hemodynamics. The experiment in a line: Central hemodynamics by radiocardiography in patients with myocardial infarction. The class given is in vivo. To be noted: as compared to the control.
The nature of the next series: Solubility and stability. In kind it is physicochemical.

Experimental for central hemodynamics: as §1
On the 1th, 10th, 20th and 40th days of the disease the central hemodynamics was determined by the method of radiocardiography.

For `O=C(O)c1cc(O)nc(O)n1` [potassium orotate, 2,6-dihydroxypyrimidine-4-carboxylic acid], the “effect on formation of compensatory hyperfunction and hypertrophy of extrainfarction areas” value in series [1] was “more marked effect”. In addition, in series [2], the “activity of lactatedehydrogenase in extra-infarction areas of myocardium” value was “slightly less pronounced effect”, the “effect on reparative processes in the zone of necrosis / organization of the post-infarction scar” value is listed as “still less pronounced effect” and the “activity of lysis-ensuring enzymes” value is recorded as “slightly increasing activity”. The “activity of reactions of pentose-phosphate shunt (glucoso-6-phosphatehydrogenase)” value in series [2] (perinecrotic areas of myocardium) is reported as “slightly increasing activity”.
As for `O=c1[nH]cnc2c1ncn2[C@@H]1O[C@H](CO)[C@@H](O)[C@H]1O` [inosine, hypoxanthine riboside], the “effect on formation of compensatory hyperfunction and hypertrophy of extrainfarction areas” value in series [1] is recorded as “more marked effect”. In series [3], the “patients in whom effect on state of blood circulation is greatest” value is given as “most pronounced effect on the state of blood circulation in patients with a repeated myocardial infarction”. Also, in series [2], the “cellular infiltration of the zone of necrosis” value is on record as “enhanced cellular infiltration of the zone of infarction”, the “effect on reparative processes in the zone of necrosis / organization of the post-infarction scar” value is given as “substantially less pronounced than the effect of the preparation according to the present invention” and the “activity of lysis-ensuring enzymes” value is listed as “increasing activity of lysis-ensuring enzymes is limited only to the zone of necrosis”. Moreover, in the series on central hemodynamics, the “regaining of hemodynamic characteristics (cardiac and systolic indices, beat work of the heart)” value is “more pronounced and earlier regaining”.
Take `CCCCCCCCCC(=O)O[C@H]1CC[C@H]2[C@@H]3CCC4=CC(=O)CC[C@@H]4[C@H]3CC[C@]12C` [retabolyl, nandrolone decanoate]: in series [2], the “activity of lactatedehydrogenase in extra-infarction areas of myocardium” value is on record as “slightly less pronounced effect” and the “effect on reparative processes in the zone of necrosis / organization of the post-infarction scar” value was “less pronounced”.
As to `CC(C)=CCCC(C)=CCC(CCCN(C)C)C(=O)O` (stereo not shown) [4',5,9-trimethyl-2-(4'-aza-pentyl)decadi-4,8-ene acid], in “Solubility and stability”, the “solubility in aqueous solutions of strong acids, alkalis, diluted solutions of salts” value is recorded as “well soluble”; the “solubility in fats and vegetable oils” value was “well soluble”; the “solubility in organic solvents (ethanol, ether, acetone, gasoline, benzene)” value is listed as “well soluble”; the solubility in water result is given as “well soluble”. In the series “Solubility and stability” (aqueous solutions), the “stability of aqueous solutions” value is “transparent, stable and can be sterilized by conventional methods”. In addition, in the series “Solubility and stability” (not more than 25° C., advisable period two years), the stability in storage entry was “stable in storage”.

The values above are taken from US4495201A, “Pharmaceutical composition and method for treating heart diseases therewith” (Institut Organicheskoi Khimii Imeni N.D. Zelinskogo, priority 1982, dated 1985).
